Results reported in ChEMBL document CHEMBL3991601, “The target landscape of clinical kinase drugs” (Science, 2017).
Active and inactive are the calls of the source. For most assays here, no stated cut-off is given here; in the data, actives have a measured Kd and inactives only a lower limit.

Legend:
[1] = target: Mitogen-activated protein kinase 8 (Homo sapiens, UniProt P45983)
[2] = target: Tyrosine-protein kinase Fyn (Homo sapiens, UniProt P06241)
[3] = target: Mitogen-activated protein kinase 10 (Homo sapiens, UniProt P53779)
Chain of Mitogen-activated protein kinase 10 (P53779 whole entry): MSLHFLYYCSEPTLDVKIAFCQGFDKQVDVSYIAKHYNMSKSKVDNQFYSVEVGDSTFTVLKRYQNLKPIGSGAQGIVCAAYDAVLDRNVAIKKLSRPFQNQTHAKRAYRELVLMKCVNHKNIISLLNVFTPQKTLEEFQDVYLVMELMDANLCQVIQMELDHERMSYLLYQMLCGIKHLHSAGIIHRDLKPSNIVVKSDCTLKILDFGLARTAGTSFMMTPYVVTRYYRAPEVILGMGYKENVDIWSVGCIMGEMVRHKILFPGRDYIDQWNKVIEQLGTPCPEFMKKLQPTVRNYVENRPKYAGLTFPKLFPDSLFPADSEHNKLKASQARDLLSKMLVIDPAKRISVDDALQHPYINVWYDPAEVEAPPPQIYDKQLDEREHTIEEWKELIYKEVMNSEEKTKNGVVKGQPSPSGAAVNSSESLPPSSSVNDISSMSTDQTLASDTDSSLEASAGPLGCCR

[4] = target: T1, MAP/microtubule affinity-regulating kinase 4 (Homo sapiens, UniProt Q96L34)
T1 sequence (Q96L34 whole entry): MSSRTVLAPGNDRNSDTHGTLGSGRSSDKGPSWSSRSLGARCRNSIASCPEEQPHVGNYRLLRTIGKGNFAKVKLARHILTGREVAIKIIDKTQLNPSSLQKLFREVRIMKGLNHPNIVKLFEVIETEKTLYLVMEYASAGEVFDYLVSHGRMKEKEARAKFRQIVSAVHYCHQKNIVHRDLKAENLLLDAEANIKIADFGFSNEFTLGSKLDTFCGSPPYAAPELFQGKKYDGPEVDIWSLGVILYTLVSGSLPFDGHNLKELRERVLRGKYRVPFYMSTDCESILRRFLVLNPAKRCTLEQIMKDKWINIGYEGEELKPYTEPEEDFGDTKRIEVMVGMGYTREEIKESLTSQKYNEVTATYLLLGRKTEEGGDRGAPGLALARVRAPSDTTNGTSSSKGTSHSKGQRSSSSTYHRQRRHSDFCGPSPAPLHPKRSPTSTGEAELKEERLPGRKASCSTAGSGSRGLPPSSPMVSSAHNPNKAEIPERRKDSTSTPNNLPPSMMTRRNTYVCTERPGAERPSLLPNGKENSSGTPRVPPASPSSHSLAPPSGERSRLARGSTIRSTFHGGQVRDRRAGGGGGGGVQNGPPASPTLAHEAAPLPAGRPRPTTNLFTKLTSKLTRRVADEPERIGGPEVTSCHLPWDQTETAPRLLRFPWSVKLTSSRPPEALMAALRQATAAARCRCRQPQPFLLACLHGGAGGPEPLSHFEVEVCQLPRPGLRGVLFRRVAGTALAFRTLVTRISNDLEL

[5] = target: T2, ADP/ATP translocase 2 (Homo sapiens, UniProt P05141)
T2 sequence (P05141 whole entry): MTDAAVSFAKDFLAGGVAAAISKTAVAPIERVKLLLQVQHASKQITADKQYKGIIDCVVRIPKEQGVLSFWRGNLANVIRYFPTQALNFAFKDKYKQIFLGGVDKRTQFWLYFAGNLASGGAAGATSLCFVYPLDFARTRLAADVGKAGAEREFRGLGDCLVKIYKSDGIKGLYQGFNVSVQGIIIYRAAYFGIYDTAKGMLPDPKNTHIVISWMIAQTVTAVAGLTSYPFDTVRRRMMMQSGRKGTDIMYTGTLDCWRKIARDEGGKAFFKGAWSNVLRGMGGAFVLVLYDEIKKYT

[6] = target: T3, Discoidin domain-containing receptor 2 (Homo sapiens, UniProt Q16832)
T3 sequence (Q16832 whole entry): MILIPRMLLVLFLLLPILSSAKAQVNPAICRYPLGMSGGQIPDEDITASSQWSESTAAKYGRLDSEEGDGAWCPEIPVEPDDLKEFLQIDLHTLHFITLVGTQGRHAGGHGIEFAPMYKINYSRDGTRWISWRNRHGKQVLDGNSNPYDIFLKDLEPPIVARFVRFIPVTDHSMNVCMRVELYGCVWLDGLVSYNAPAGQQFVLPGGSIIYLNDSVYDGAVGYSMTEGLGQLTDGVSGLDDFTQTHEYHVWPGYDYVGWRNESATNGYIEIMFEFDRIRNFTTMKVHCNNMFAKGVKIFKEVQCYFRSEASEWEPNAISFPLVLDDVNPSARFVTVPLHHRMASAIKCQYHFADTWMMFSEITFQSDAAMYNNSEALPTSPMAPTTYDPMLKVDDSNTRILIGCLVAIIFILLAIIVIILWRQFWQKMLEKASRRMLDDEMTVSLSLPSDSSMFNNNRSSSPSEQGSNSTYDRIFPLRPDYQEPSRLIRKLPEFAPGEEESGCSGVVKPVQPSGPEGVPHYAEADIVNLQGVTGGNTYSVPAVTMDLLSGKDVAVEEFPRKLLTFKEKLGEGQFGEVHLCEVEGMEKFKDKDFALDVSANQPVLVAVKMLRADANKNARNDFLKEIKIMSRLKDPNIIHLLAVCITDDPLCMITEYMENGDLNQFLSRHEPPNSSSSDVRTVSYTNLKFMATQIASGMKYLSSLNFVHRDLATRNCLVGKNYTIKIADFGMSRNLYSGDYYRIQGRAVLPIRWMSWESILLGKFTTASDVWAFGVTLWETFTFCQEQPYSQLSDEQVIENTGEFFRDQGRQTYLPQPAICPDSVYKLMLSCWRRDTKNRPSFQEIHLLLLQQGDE

[7] = target: T4, Serine/threonine-protein kinase Nek3 (Homo sapiens, UniProt P51956)
T4 sequence (P51956 whole entry): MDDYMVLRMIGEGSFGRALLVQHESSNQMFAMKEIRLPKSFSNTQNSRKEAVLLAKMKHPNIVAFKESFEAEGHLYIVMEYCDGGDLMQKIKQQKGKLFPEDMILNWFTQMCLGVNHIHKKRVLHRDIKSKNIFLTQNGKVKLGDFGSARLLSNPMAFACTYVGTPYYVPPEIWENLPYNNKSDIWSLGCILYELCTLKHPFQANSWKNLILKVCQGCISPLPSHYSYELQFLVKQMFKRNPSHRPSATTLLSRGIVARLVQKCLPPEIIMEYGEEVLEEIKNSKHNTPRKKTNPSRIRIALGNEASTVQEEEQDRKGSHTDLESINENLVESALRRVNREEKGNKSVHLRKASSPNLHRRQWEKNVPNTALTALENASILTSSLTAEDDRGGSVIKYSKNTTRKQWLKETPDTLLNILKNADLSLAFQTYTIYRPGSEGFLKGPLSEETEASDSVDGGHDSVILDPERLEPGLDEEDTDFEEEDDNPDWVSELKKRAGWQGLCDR

[8] = target: DnaJ homolog subfamily A member 1 (Homo sapiens, UniProt P31689)
Chain of DnaJ homolog subfamily A member 1 (P31689 whole entry): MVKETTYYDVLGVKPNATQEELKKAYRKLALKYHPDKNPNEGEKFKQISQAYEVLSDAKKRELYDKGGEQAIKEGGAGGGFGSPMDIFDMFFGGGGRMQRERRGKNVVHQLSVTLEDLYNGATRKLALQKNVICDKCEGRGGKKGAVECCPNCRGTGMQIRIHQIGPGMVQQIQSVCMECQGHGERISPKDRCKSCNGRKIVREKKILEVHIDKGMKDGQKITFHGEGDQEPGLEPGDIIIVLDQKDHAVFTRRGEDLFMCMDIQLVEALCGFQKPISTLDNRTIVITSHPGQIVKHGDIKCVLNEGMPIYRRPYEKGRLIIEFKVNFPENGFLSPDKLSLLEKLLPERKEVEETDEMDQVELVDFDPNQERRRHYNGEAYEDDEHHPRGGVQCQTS

[9] = target: Receptor-interacting serine/threonine-protein kinase 2 (Homo sapiens, UniProt O43353)
Chain of Receptor-interacting serine/threonine-protein kinase 2 (O43353 whole entry): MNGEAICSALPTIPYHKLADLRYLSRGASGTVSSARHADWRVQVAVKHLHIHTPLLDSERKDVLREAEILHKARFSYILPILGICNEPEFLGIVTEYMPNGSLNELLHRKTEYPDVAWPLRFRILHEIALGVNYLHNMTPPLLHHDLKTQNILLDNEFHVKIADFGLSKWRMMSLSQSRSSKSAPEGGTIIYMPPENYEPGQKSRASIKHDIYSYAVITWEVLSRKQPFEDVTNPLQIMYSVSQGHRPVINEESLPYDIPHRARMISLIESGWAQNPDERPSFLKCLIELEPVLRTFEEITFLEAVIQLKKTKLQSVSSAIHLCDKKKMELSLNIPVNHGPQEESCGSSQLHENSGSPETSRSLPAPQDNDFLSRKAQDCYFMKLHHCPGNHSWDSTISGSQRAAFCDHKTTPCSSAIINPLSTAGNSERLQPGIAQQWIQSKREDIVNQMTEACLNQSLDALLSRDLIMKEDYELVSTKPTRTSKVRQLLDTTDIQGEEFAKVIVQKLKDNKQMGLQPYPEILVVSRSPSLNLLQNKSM

Chain of Mitogen-activated protein kinase 8 (P45983 whole entry): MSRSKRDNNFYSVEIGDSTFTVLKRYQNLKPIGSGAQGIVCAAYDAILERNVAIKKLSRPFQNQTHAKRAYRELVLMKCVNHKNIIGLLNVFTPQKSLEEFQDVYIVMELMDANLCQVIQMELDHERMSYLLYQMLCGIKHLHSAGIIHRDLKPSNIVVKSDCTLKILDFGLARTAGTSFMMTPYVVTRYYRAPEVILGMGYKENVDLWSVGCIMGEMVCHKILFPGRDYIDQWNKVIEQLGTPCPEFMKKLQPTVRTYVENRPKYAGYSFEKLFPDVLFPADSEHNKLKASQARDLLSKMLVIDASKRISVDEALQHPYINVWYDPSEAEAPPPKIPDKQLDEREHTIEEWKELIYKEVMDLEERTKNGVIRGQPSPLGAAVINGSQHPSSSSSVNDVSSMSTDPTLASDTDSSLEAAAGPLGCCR
Chain of Tyrosine-protein kinase Fyn (P06241 whole entry): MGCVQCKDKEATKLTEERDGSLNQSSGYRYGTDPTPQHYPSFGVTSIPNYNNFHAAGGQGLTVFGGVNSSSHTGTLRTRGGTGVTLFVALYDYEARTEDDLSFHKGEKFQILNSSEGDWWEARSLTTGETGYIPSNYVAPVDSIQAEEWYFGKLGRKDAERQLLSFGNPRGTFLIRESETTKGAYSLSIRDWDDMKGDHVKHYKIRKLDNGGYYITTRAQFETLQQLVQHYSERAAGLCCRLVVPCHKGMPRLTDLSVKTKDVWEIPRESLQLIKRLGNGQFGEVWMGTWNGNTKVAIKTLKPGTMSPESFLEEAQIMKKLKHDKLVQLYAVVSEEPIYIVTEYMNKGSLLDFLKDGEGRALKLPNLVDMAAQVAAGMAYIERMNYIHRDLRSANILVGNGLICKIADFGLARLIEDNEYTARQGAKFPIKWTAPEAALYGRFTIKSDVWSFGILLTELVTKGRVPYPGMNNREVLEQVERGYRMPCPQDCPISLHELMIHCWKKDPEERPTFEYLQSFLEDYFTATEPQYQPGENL

SMILES	Kd [1]	Kd [2]	Kd [3]	Kd [4]	Kd [5]	Kd [6]	Kd [7]	Kd [8]	Kd [9]
CN1N=C(N)c2cn([C@@H]3O[C@H](COP(=O)(O)O)[C@@H](O)[C@H]3O)c3ncnc1c23 [TRICIRIBINE PHOSPHATE]	> 30 µM (inactive)	> 30 µM (inactive)	> 30 µM (inactive)	> 30 µM (inactive)	> 30 µM (inactive)	> 30 µM (inactive)	> 30 µM (inactive)	> 30 µM (inactive)	> 30 µM (inactive)
Cc1cc([C@@H](C)Nc2ccccc2C(=O)O)c2nc(N3CCOCC3)cc(=O)n2c1 [AZD-6482]	> 30 µM (inactive)	> 30 µM (inactive)	> 30 µM (inactive)	> 30 µM (inactive)	> 30 µM (inactive)	> 30 µM (inactive)	> 30 µM (inactive)	> 30 µM (inactive)	> 30 µM (inactive)
Cc1cc(-c2cc(O)ccc2Cl)cc2nnc(Nc3ccc(OCCN4CCCC4)cc3)nc12	> 30 µM (inactive)	> 30 µM (inactive)	> 30 µM (inactive)	> 30 µM (inactive)	> 30 µM (inactive)	0.004 µM (active)	> 30 µM (inactive)	> 30 µM (inactive)	0.0009 µM (active)
Cc1c(F)cc(C(=O)NC2CC2)cc1-c1ccc(C(=O)NCC(C)(C)C)cn1 [LOSMAPIMOD]	> 30 µM (inactive)	> 30 µM (inactive)	> 30 µM (inactive)	> 30 µM (inactive)	> 30 µM (inactive)	> 30 µM (inactive)	> 30 µM (inactive)	> 30 µM (inactive)	> 30 µM (inactive)
O=C(c1ccc(F)c(F)c1Nc1ccc(I)cc1F)N1CC(O)([C@@H]2CCCCN2)C1 [COBIMETINIB]	> 30 µM (inactive)	> 30 µM (inactive)	> 30 µM (inactive)	> 30 µM (inactive)	> 30 µM (inactive)	> 30 µM (inactive)	> 30 µM (inactive)	> 30 µM (inactive)	> 30 µM (inactive)
COc1cc(N2CCC(N3CCN(C)CC3)CC2)ccc1Nc1ncnc(Nc2ccccc2S(=O)(=O)C(C)C)n1 [ASP-3026]	> 30 µM (inactive)	1.53 µM (active)	> 30 µM (inactive)	> 30 µM (inactive)	> 30 µM (inactive)	> 30 µM (inactive)	> 30 µM (inactive)	> 30 µM (inactive)	> 30 µM (inactive)
O=c1sn(-c2cccc3ccccc23)c(=O)n1Cc1ccccc1 [TIDEGLUSIB]	> 30 µM (inactive)	> 30 µM (inactive)	> 30 µM (inactive)	> 30 µM (inactive)	> 30 µM (inactive)	> 30 µM (inactive)	> 30 µM (inactive)	> 30 µM (inactive)	> 30 µM (inactive)
CNS(=O)(=O)Nc1nccc(Cc2c(C)c3ccc(Oc4ncccn4)cc3oc2=O)c1F [AVUTOMETINIB]	> 30 µM (inactive)	> 30 µM (inactive)	> 30 µM (inactive)	> 30 µM (inactive)	> 30 µM (inactive)	> 30 µM (inactive)	> 30 µM (inactive)	> 30 µM (inactive)	> 30 µM (inactive)
C[C@@H](Nc1cc(F)cc(F)c1)c1cc(C(=O)N(C)C)cc2c(=O)cc(N3CCOCC3)oc12 [AZD-8186]	> 30 µM (inactive)	> 30 µM (inactive)	> 30 µM (inactive)	> 30 µM (inactive)	> 30 µM (inactive)	> 30 µM (inactive)	> 30 µM (inactive)	> 30 µM (inactive)	> 30 µM (inactive)
Cc1ccc(S(=O)(=O)Nc2nc3ccccc3nc2Nc2ccc3nsnc3c2)cc1	> 30 µM (inactive)	> 30 µM (inactive)	> 30 µM (inactive)	> 30 µM (inactive)	> 30 µM (inactive)	> 30 µM (inactive)	> 30 µM (inactive)	> 30 µM (inactive)	> 30 µM (inactive)
CN1CCC(CNc2ccc3ncc(-c4cccc(OC(F)(F)F)c4)n3n2)CC1 [SGI-1776]	> 30 µM (inactive)	> 30 µM (inactive)	> 30 µM (inactive)	> 30 µM (inactive)	> 30 µM (inactive)	> 30 µM (inactive)	> 30 µM (inactive)	> 30 µM (inactive)	> 30 µM (inactive)
CCCS(=O)(=O)Nc1ccc(F)c(C(=O)c2c[nH]c3ncc(-c4ccc(Cl)cc4)cc23)c1F [VEMURAFENIB]	> 30 µM (inactive)	> 30 µM (inactive)	> 30 µM (inactive)	> 30 µM (inactive)	> 30 µM (inactive)	> 30 µM (inactive)	> 30 µM (inactive)	> 30 µM (inactive)	0.427 µM (active)
C=CC(=O)N1CCC(Oc2cc3c(Nc4ccc(Cl)c(Cl)c4F)ncnc3cc2OC)CC1 [POZIOTINIB]	> 30 µM (inactive)	> 30 µM (inactive)	> 30 µM (inactive)	> 30 µM (inactive)	> 30 µM (inactive)	> 30 µM (inactive)	> 30 µM (inactive)	> 30 µM (inactive)	0.048 µM (active)
